# From EP1057484A1, “CELL DEATH INHIBITORS” (priority 1998, dated 1999)
# Columns and labels:
# erythrocytes = assay: Test Example 13: hydrogen peroxide-induced death of erythrocytes; type: cell-based; conditions: Homo sapiens, Erythrocyte, read-out: ratios of dead erythrocytes (dark ghost cells)
# Procedure: After human blood (2 mL) was centrifuged at 1000 rpm for 5 min, the resulting cell pellets containing erythrocytes were washed three times with a DMEM medium and the cells were resuspended in the same medium (15 mL) (about 5 × 10^8 cells/mL). Ten µL of this suspension was added with 10% FCS/DMEM (10 mL), and the cells were plated in 48 well plates (500 µL/well). When hydrogen peroxide (300 µM) was added to the erythrocyte culture solution and the cells were cultured for 24 hours, all erythrocytes were dead on observations under a light microscopy (all erythrocytes were subjected to shape changes from a bright, round and concave shape into a dark hemolytic ghost through multiple shape changes). On the other hand, Test Compound 14 (30 µM), Test Compound 18 (10 µM), Test Compound 19 (20 µM) or Test Compound 20 (20 µM) was added prior to the hydrogen peroxide addition.
# [1] = test system: monolayer cells derived from the mouse kidneys; assay: Test Example 15: SNP-induced apoptosis of monolayer cells derived from kidneys; type: cell-based, mice; conditions: observation after 48 hours, read-out: cells alive
# Procedure: Kidneys isolated from mice were dissected into minute pieces in a serum-free DMEM, which were dispersed with trypsin/EDTA treatment. After leaving it for a while, the supernatant was discarded, and the pellet was transferred to a culture plate and cultured in DMEM containing 10% fetal bovine serum in a CO2 incubator according to a conventional manner. After tissues were adhered onto a culture plate and subsequently cell colonies got formed, the tissues were removed and the colonies were subcultured in the same medium. The resulting monolayer cells derived from the mouse kidneys were morphologically different from fibroblasts. […] Then, Test Compound 14 (5 µM) or Test Compound 18 (2.5 µM) was added prior to the SNP addition and the cells were observed.
# undifferentiated POGC [2] = assay: Test Example 8: bilirubin-induced cell death of undifferentiated POGC; type: cell-based, porcine; conditions: Sus scrofa, 96 h; 10 µM added prior to bilirubin (30 µg/mL); observation after 4 days; read-out: survival of the cells
# [3] = test system: Primary cultured fibroblasts; assay: Test Example 14: SNP-induced apoptosis of primary cultured fibroblasts; type: cell-based, mice; conditions: Mus musculus, Fibroblast, observation after 48 hours, read-out: cells alive
# Procedure: Primary cultured fibroblasts were prepared from mice according to a known method (Kinou Saibou no Bunri to Baiyou (Isolation and Culture of Functional Cells), Maruzen, 1987, p. 59). Namely, after removing skin hairs from mice with shaving foam followed by disinfection with a chlorhexidine gluconate solution, tiny skin fragments were isolated. […] After migration of fibroblasts became obvious, the slide glasses and the residual skin fragments were removed, and the culture was continued. […] In the cases that Test Compound 14 (5 µM) or Test Compound 18 (2.5 µM) was added to the present culture system prior to the SNP addition, apoptosis in both cultures was inhibited and more than 95% of cells were alive on an observation after 48 hours.
# 4B2 cells = assay: Test Example 9: SNP-induced apoptosis of 4B2 granulosa cell line; type: cell-based; conditions: Mus musculus; 10 µM added prior to SNP (0.5 mM); observation after 24 hours; read-out: cells alive
# Procedure: Mouse granulosa cells were transfected with SV40 T antigen and cDNA of steroidogenic factor-1 (SF-1/Ad4BP) to establish a cell line, named 4B2. The cell secretes progesterone in response to protein kinase-A. The 4B2 cells were cultured in 48-well culture plates until subconfluency in DMEM containing 10% fetal bovine serum in a CO2 incubator according to a conventional manner. After the medium was switched to DMEM containing 2% fetal bovine serum, SNP (0.5 mM) was added thereto. […] Then, prior to the addition of SNP, Test Compound 13, 14, 17, 20, 24 or 25 (10 µM each) was added to the present medium and observations on cells were made after 24 hours.
# cerebellar granule cells [4] = assay: Test Example 11: SNP-induced death of cerebellar granule cells; type: cell-based, rats; conditions: Rattus norvegicus; 10 µM added prior to SNP (1.5 µM); observation after 12 hours; read-out: cells alive
# cerebellar granule cells [5] = assay: Test Example 10: hydrogen peroxide-induced death of cerebellar granule cells; type: cell-based, rats; conditions: Rattus norvegicus, read-out: cells alive
# Procedure: (§1) According to a known method (A Dissection and Tissue Culture Manual of the Nervous System, p. 211, 1989, Alan R, Liss, Inc.), cerebellar granule cells were isolated from the cerebellum of 7 days old rats and cultured. Namely, after conducting isolation procedures described in the above literature, the resulting cells were resuspended in DMEM containing 10% fetal bovine serum, 25 mM KCl and 2 mM glutamine, and seeded in poly-lysine coated plates. After the cells were cultured in a CO2 incubator for 48 hours according to a conventional method, cytosine-1-β-D(+)-arabinofuranoside (Ara-C) (10 µM) was added thereto, and the cell was continued to culture. The following experiments were conducted with the cells of 7 to 14 days old from the start day of the culture, the cells having completed neurite extension sufficiently. […] Furthermore, experiments were conducted by increasing a concentration of hydrogen peroxide to 300 µM. In the cases that Test Compound 18 (10 µM), Test Compound 19 (10 µM), or Test Compound 20 (10 µM) were added, about 90%, 90%, and 70% of the cells were alive, respectively, on observations after 16 hours.
# cerebellar granule cells [6] = assay: Test Example 12: bilirubin-induced death of cerebellar granule cells; type: cell-based, rats; conditions: Rattus norvegicus; 10 µM added prior to bilirubin (100 µg/ml); observation after 18 hours; read-out: cells alive
# Procedure: as §1
# Neonatal jaundice is known to induce severe brain damages by way of abnormally high concentration of bilirubin in the body. […]
# [7] = test system: Porcine Ovarian Granulosa Cells; assay: Test Example 7: inhibition of SNP-induced apoptosis of undifferentiated POGC; type: cell-based; conditions: Sus scrofa; for complete inhibition of apoptosis; SNP 0.5 mM; cells observed after 48 hours; read-out: Minimum effective concentration
# [8] = test system: Porcine ovarian granulosa cells (POGC); assay: Test Example 3: PGF2α-induced cell death of terminally differentiated POGC; type: cell-based; conditions: Sus scrofa; 3 µM added prior to PGF2α (50 µg/mL); observation after 16 hour; read-out: survival of the cells
# Text: (§2) The ovarian granulosa cells are cells surrounding an ovum, and proliferate and differentiate by the action of follicle stimulating hormone (FSH) and luteinizing hormone (LH) in response to sexual cycles, during which they acquire a progesterone-producing ability. Unovulatory follicles finally undergo apoptosis and disappear. The differentiation process can be mimicked following to a known method (Endocrinology, Vol. 136, p. 3470, 1995) as shown in the following in vitro experiment. Furthermore, when they are continuously cultured with maintaining final differentiation ability, they are observed to undergo apoptosis as described below. Namely, porcine ovaries were rinsed with PBS buffer, and porcine ovarian granulosa cells (POGC) were collected by aspiration from antral follicles with a syringe. Cell fraction was recovered as a precipitate by centrifugation of the suspension. The operation of suspending the cell fraction into PBS buffer and subjecting the resulting suspension to centrifugation was repeated three times to wash the cells. […] Upon continued culture, these completely differentiated cells undergo cell death synchronously after about 5 days, the cell death being monitored by a trypan blue exclusion test and a MTT (3-(4,5-dimethylthiazol-2-yl)-2,5-diphenyltetrazolium bromide) test. […]
# undifferentiated POGC [9] = assay: Test Example 6: hydrogen peroxide-induced cell death of undifferentiated POGC; type: cell-based, porcine; conditions: Sus scrofa; 3 µM added prior to hydrogen peroxide (100 µm); observation after 24 hours; read-out: cells alive
# POGC [10] = assay: Test Example 5: staurosporine-induced cell death of completely differentiated POGC; type: cell-based, porcine; conditions: Sus scrofa; 3 µM added prior to staurosporine (3 nM); observation after 68 hours; read-out: cells alive
# Text: as §2
# [11] = test system: Porcine ovarian granulosa cells (POGC); assay: Test Example 2: cell death of terminally differentiated (FSH/LH) POGC on continued culture; type: cell-based; conditions: Sus scrofa, 168 h; 3 µM added 4 days after final medium refreshment; observation 7 days after addition; read-out: cells alive
# Text: The ovarian granulosa cells are cells surrounding an ovum, and proliferate and differentiate by the action of follicle stimulating hormone (FSH) and luteinizing hormone (LH) in response to sexual cycles, during which they acquire a progesterone-producing ability. Unovulatory follicles finally undergo apoptosis and disappear. The differentiation process can be mimicked following to a known method (Endocrinology, Vol. 136, p. 3470, 1995) as shown in the following in vitro experiment. Furthermore, when they are continuously cultured with maintaining final differentiation ability, they are observed to undergo apoptosis as described below. Namely, porcine ovaries were rinsed with PBS buffer, and porcine ovarian granulosa cells (POGC) were collected by aspiration from antral follicles with a syringe. Cell fraction was recovered as a precipitate by centrifugation of the suspension. The operation of suspending the cell fraction into PBS buffer and subjecting the resulting suspension to centrifugation was repeated three times to wash the cells. […] Upon continued culture, these completely differentiated cells undergo cell death synchronously after about 5 days, the cell death being monitored by a trypan blue exclusion test and a MTT (3-(4,5-dimethylthiazol-2-yl)-2,5-diphenyltetrazolium bromide) test.
# POGC [12] = assay: Test Example 4: cell death of POGC in long term serum-free, hormone-free culture; type: cell-based, porcine; conditions: Sus scrofa, 168 h, observation at 7 days after the death of cells treated with no test compound, read-out: survival of the cells
# Text: as §2
# [13] = 5 µM added prior to SNP (0.5 mM)
# [14] = 10 µM, hydrogen peroxide 300 µM, observation after 16 hours
# [15] = 2.5 µM added prior to SNP (0.5 mM)
smiles,measurement,setting,value
CN1C(=O)C(c2c[nH]c3ccccc23)=C(c2c[nH]c3ccccc23)C1=O,cytotoxicity at 30 µM,"erythrocytes; 30 µM added prior to hydrogen peroxide (300 µM), observation after 24 hours",20%
same,viability at 5 µM,[1]; [13],> 95%
same,viability at 10 µM,undifferentiated POGC [2],50%
same,viability at 5 µM,[3]; [13],> 95%
same,viability at 10 µM,4B2 cells,> 95%
same,viability at 10 µM,cerebellar granule cells [4],> 95%
CC(=O)NCCCn1cc(C2=C(c3c[nH]c4ccccc34)C(=O)N(C)C2=O)c2ccccc21 [Compound 20],cytotoxicity at 20 µM,"erythrocytes; 20 µM added prior to hydrogen peroxide (300 µM), observation after 24 hours",10%
same,viability at 10 µM,cerebellar granule cells [5]; [14],~70%
same,viability at 10 µM,cerebellar granule cells [6],~80%
same,viability at 10 µM,4B2 cells,> 95%
same,minimal effective concentration,[7],7 µM
same,viability at 10 µM,cerebellar granule cells [4],> 95%
CN(C)CCCn1cc(C2=C(c3c[nH]c4ccccc34)C(=O)NC2=O)c2ccccc21 [Compound 18],viability at 3 µM,[8],> 95%
same,cytotoxicity at 10 µM,erythrocytes; 24 h,20%
same,viability at 3 µM,undifferentiated POGC [9],> 95%
same,viability at 2.5 µM,[1]; [15],> 95%
same,viability at 10 µM,cerebellar granule cells [5]; [14],~90%
same,viability at 3 µM,POGC [10],> 95%
same,viability at 3 µM,[11],> 95%
same,viability at 2.5 µM,[3]; [15],> 95%
same,viability at 3 µM,POGC [12],> 95%
Cc1cccc2c(C3=C(c4c[nH]c5c(C)cccc45)C(=O)N(C)C3=O)c[nH]c12 [Compound 25],viability at 10 µM,"cerebellar granule cells [5]; 10 µM added prior to hydrogen peroxide (10 µM), observation after 12 hours",> 95%
same,viability at 10 µM,undifferentiated POGC [2],95%
same,viability at 10 µM,4B2 cells,> 95%
same,minimal effective concentration,[7],0.3 µM
same,viability at 10 µM,cerebellar granule cells [4],> 95%
